# Source: patent publication US20260356856A1, “KRAS G12S AND G12C INHIBITORS” (MIRATI THERAPEUTICS, INC., priority 2023, published 2026)
# Columns and labels:
# KRas G12C = target: T1, KRas G12C (Homo sapiens, UniProt P01116, G12C); experiment: KRas binding assay, TR-FRET displacement of Cy5 labelled tracer; conditions: 60-minute incubation at room temperature, 1% DMSO, pH 7.5
# T1 construct: Biotinylated KRas (corresponding to amino acids 1-169, produced at Accelegan Inc.); biotin (biotinylated); purchased Accelegan Inc
# T1 sequence (P01116 1-169 isoform P01116-2 G12C): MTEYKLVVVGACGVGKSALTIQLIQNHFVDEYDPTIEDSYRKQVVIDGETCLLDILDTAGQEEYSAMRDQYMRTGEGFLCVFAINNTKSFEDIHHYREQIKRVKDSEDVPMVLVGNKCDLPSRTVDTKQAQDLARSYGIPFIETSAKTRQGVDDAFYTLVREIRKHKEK
# How it was run: (§1)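 Room-temperature incubation (60 min) of compound with biotinylated KRas 1-169, tracer and Tb-streptavidin preceded the TR-FRET read. Final DMSO was 1%; buffer pH 7.5. Percent-of-control values went into a 4-parameter equation to give IC50.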
# KRas G12S = target: T2, KRas G12S (Homo sapiens, UniProt P01116, G12S); experiment: as above; conditions: 60-minute incubation at room temperature, 1% DMSO, pH 7.5
# T2 construct: Biotinylated KRas (corresponding to amino acids 1-169, produced at Accelegan Inc.); biotin (biotinylated); purchased Accelegan Inc
# T2 sequence (P01116 1-169 isoform P01116-2 G12S): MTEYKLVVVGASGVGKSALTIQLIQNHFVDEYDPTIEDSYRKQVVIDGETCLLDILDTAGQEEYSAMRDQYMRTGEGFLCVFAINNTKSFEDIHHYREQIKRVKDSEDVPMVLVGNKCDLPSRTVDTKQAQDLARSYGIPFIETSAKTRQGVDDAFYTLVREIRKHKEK
# How it was run: as §1
# KRas WT = target: T3, KRas WT (Homo sapiens, UniProt P01116); experiment: as above; conditions: 60-minute incubation at room temperature, 1% DMSO, pH 7.5
# T3 construct: Biotinylated KRas (corresponding to amino acids 1-169, produced at Accelegan Inc.); biotin (biotinylated); purchased Accelegan Inc
# T3 sequence (P01116 1-169 isoform P01116-2): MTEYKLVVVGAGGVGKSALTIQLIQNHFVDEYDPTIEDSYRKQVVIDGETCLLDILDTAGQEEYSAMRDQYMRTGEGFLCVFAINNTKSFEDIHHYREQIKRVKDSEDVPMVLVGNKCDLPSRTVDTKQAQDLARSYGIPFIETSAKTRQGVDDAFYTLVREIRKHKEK
# How it was run: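 IC50 came from fitting POC values with a four-parameter equation. Signal was read after one hour at room temperature. Protein was biotin-tagged KRas 1-169 captured by terbium streptavidin, with compound in 1% DMSO (final).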
# [1] = target: T4, KRas-mediated phosphorylation of ERK in MKN1 cells (Homo sapiens, UniProt P01116); experiment: Inhibition of KRas-mediated phosphorylation of ERK (HTRF), MKN1 cells; format: cell-based; conditions: MKN1 cells (KRas WT); HTRF pERK; 3 h incubation
# T4 construct: pERK HTRF read-out
# T4 sequence (P01116 1-188 isoform P01116-2): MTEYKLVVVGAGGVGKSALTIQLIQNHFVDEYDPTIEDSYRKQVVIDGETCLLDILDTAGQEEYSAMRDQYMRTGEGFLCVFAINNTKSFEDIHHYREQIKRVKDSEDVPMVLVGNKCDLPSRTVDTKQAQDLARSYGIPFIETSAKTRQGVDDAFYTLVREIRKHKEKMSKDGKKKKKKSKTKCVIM
# Protocol: Inhibition of KRas Phosphorylation of ERK (HTRF) by Exemplary Compounds of Formula (Ia) or (Ib)
# Cisbio HTRF Advanced pERK Assay Catalog #64AERPEH • Cells: MKN1, PSN1 • Procedure: • 1. Day 1: Seed 6,000 cells/well −25 μl/well in 384-well white solid bottom plate; RPM1_10% FBS. Incubate overnight at 37 °C/5% CO2. • 2.
# [2] = target: T5, KRas-mediated phosphorylation of ERK in A549 cells (Homo sapiens, UniProt P01116, G12S); experiment: Inhibition of KRas-mediated phosphorylation of ERK (HTRF), A549 cells; format: cell-based; conditions: HTRF pERK, 3 h incubation
# T5 construct: pERK HTRF read-out
# T5 sequence (P01116 1-188 isoform P01116-2 G12S): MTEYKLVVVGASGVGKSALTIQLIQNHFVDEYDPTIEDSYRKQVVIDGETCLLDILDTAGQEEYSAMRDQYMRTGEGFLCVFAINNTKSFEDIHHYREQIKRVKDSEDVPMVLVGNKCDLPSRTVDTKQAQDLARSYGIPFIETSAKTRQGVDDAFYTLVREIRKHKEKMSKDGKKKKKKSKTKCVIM
# [3] = target: T6, KRas-mediated phosphorylation of ERK in H358 cells (Homo sapiens, UniProt P01116, G12C); experiment: Inhibition of KRas-mediated phosphorylation of ERK (HTRF), H358 cells; format: cell-based; conditions: HTRF pERK, 3 h incubation
# T6 construct: pERK HTRF read-out
# T6 sequence (P01116 1-188 isoform P01116-2 G12C): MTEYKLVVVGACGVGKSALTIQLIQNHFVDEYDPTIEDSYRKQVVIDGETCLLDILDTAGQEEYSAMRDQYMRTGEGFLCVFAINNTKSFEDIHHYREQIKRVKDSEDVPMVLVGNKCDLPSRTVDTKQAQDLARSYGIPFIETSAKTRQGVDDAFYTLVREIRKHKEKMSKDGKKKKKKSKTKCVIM
IC50 (KRas G12C),IC50 (KRas G12S),IC50 (KRas WT),IC50 [1],IC50 [2],IC50 [3],SMILES
77 nM,36 nM,63 nM,4000 nM,109 nM,3720 nM,"CCc1c(F)ccc2cc(O)cc(-c3ncc4c(N5CCC(C(=O)n6ccc(C)n6)CC5)nc(OC[C@@]56CCCN5C[C@H](F)C6)nc4c3F)c12 [Example 1, (1-(7-(8-ethyl-7-fluoro-3-hydroxynaphthalen-1-yl)-8-fluoro-2-(((2R,7aS)-2-fluorotetrahydro-1H-pyrrolizin-7a(5H)-yl)methoxy)pyrido[4,3-d]pyrimidin-4-yl)piperidin-4-yl)(3-methyl-1H-pyrazol-1-yl)methanone]"
22 nM,9 nM,51 nM,2040 nM,69 nM,5440 nM,"CCc1c(F)ccc2cc(O)cc(-c3ncc4c(N5CCC(C(=O)n6cccn6)CC5)nc(OC[C@@]56CCCN5C[C@H](F)C6)nc4c3F)c12 [Example 4, (1-(7-(8-ethyl-7-fluoro-3-hydroxynaphthalen-1-yl)-8-fluoro-2-(((2R,7aS)-2-fluorotetrahydro-1H-pyrrolizin-7a(5H)-yl)methoxy)pyrido[4,3-d]pyrimidin-4-yl)piperidin-4-yl)(1H-pyrazol-1-yl)methanone]"
54 nM,44 nM,23 nM,70 nM,337 nM,428 nM,"CCc1c(F)ccc2cc(O)cc(-c3ncc4c(N5CCC(C(=O)OC)CC5)nc(OC[C@@]56CCCN5C[C@H](F)C6)nc4c3F)c12 [Example 16, methyl 1-(7-(8-ethyl-7-fluoro-3-hydroxynaphthalen-1-yl)-8-fluoro-2-(((2R,7aS)-2-fluorotetrahydro-1H-pyrrolizin-7a(5H)-yl)methoxy)pyrido[4,3-d]pyrimidin-4-yl)piperidine-4-carboxylate]"
13 nM,1590 nM,195 nM,1360 nM,6550 nM,808 nM,"CCc1c(F)ccc2cc(O)cc(-c3ncc4c(N5CCC(C(=O)Oc6ccccc6)CC5)nc(OC[C@@]56CCCN5C[C@H](F)C6)nc4c3F)c12 [Example 39, phenyl 1-(7-(8-ethyl-7-fluoro-3-hydroxynaphthalen-1-yl)-8-fluoro-2-(((2R,7aS)-2-fluorotetrahydro-1H-pyrrolizin-7a(5H)-yl)methoxy)pyrido[4,3-d]pyrimidin-4-yl)piperidine-4-carboxylate]"
7 nM,2 nM,77 nM,305 nM,16 nM,88 nM,"CCc1c(F)ccc2cc(O)cc(-c3ncc4c(N5CCCCC(C(=O)n6ccc(C)n6)CC5)nc(OC[C@@]56CCCN5C[C@H](F)C6)nc4c3F)c12 (stereo partly drawn) [Example 53, (1-(7-(8-ethyl-7-fluoro-3-hydroxynaphthalen-1-yl)-8-fluoro-2-(((2R,7aS)-2-fluorotetrahydro-1H-pyrrolizin-7a(5H)-yl)methoxy)pyrido[4,3-d]pyrimidin-4-yl)azocan-4-yl)(3-methyl-1H-pyrazol-1-yl)methanone]"
502 nM,266 nM,483 nM,2420 nM,334 nM,1420 nM,"CCc1c(F)ccc2cc(O)cc(-c3ncc4c(N5CCCC(C(=O)n6ccc(C)n6)CCC5)nc(OC[C@@]56CCCN5C[C@H](F)C6)nc4c3F)c12 [Example 54, (1-(7-(8-ethyl-7-fluoro-3-hydroxynaphthalen-1-yl)-8-fluoro-2-(((2R,7aS)-2-fluorotetrahydro-1H-pyrrolizin-7a(5H)-yl)methoxy)pyrido[4,3-d]pyrimidin-4-yl)azocan-5-yl)(3-methyl-1H-pyrazol-1-yl)methanone]"
5 nM,28 nM,7 nM,50 nM,116 nM,90 nM,"CCc1c(F)ccc2cc(O)cc(-c3ncc4c(N5CCCCCC(C(=O)n6ccc(C)n6)C5)nc(OC[C@@]56CCCN5C[C@H](F)C6)nc4c3F)c12 (stereo partly drawn) [Example 55, (1-(7-(8-ethyl-7-fluoro-3-hydroxynaphthalen-1-yl)-8-fluoro-2-(((2R,7aS)-2-fluorotetrahydro-1H-pyrrolizin-7a(5H)-yl)methoxy)pyrido[4,3-d]pyrimidin-4-yl)azocan-3-yl)(3-methyl-1H-pyrazol-1-yl)methanone]"
96 nM,66 nM,107 nM,8500 nM,200 nM,5580 nM,"CCc1c(F)ccc2cc(O)cc(-c3ncc4c(N5CCC(C(=O)n6cc(C)cn6)CC5)nc(OC[C@@]56CCCN5C[C@H](F)C6)nc4c3F)c12 [Example 57, (1-(7-(8-ethyl-7-fluoro-3-hydroxynaphthalen-1-yl)-8-fluoro-2-(((2R,7aS)-2-fluorotetrahydro-1H-pyrrolizin-7a(5H)-yl)methoxy)pyrido[4,3-d]pyrimidin-4-yl)piperidin-4-yl)(4-methyl-1H-pyrazol-1-yl)methanone]"
108 nM,221 nM,89 nM,427 nM,338 nM,677 nM,"CCc1c(F)ccc2cc(O)cc(-c3ncc4c(N5CCC(C(=O)n6ccc(N(C)C)n6)CC5)nc(OC[C@@]56CCCN5C[C@H](F)C6)nc4c3F)c12 [Example 58, (3-(dimethylamino)-1H-pyrazol-1-yl)(1-(7-(8-ethyl-7-fluoro-3-hydroxynaphthalen-1-yl)-8-fluoro-2-(((2R,7aS)-2-fluorotetrahydro-1H-pyrrolizin-7a(5H)-yl)methoxy)pyrido[4,3-d]pyrimidin-4-yl)piperidin-4-yl)methanone]"
8 nM,< 2 nM,< 2 nM,27 nM,372 nM,486 nM,"CCc1c(F)ccc2cc(O)cc(-c3ncc4c(N5CC6CCC(C5)C6C(=O)n5cccn5)nc(OC[C@@]56CCCN5C[C@H](F)C6)nc4c3F)c12 (stereo partly drawn) [Example 59, ((1R,5S,8S)-3-(7-(8-ethyl-7-fluoro-3-hydroxynaphthalen-1-yl)-8-fluoro-2-(((2R,7aS)-2-fluorotetrahydro-1H-pyrrolizin-7a(5H)-yl)methoxy)pyrido[4,3-d]pyrimidin-4-yl)-3-azabicyclo[3.2.1]octan-8-yl)(1H-pyrazol-1-yl)methanone]"
336 nM,34 nM,136 nM,2610 nM,84 nM,8570 nM,"CCc1c(F)ccc2cc(O)cc(-c3ncc4c(N5CCC(C(=O)n6ccc(OC)n6)CC5)nc(OC[C@@]56CCCN5C[C@H](F)C6)nc4c3F)c12 [Example 61, (1-(7-(8-ethyl-7-fluoro-3-hydroxynaphthalen-1-yl)-8-fluoro-2-(((2R,7aS)-2-fluorotetrahydro-1H-pyrrolizin-7a(5H)-yl)methoxy)pyrido[4,3-d]pyrimidin-4-yl)piperidin-4-yl)(3-methoxy-1H-pyrazol-1-yl)methanone]"
96 nM,20 nM,145 nM,1460 nM,40 nM,3250 nM,"CCc1c(F)ccc2cc(O)cc(-c3ncc4c(N5CCCC(C(=O)n6ccc(C)n6)CC5)nc(OC[C@@]56CCCN5C[C@H](F)C6)nc4c3F)c12 (stereo partly drawn) [Example 63, (1-(7-(8-ethyl-7-fluoro-3-hydroxynaphthalen-1-yl)-8-fluoro-2-(((2R,7aS)-2-fluorotetrahydro-1H-pyrrolizin-7a(5H)-yl)methoxy)pyrido[4,3-d]pyrimidin-4-yl)azepan-4-yl)(3-methyl-1H-pyrazol-1-yl)methanone]"
13 nM,40 nM,32 nM,4500 nM,119 nM,4600 nM,"CCc1c(F)ccc2cc(O)cc(-c3ncc4c(N5CCC(C(=O)n6cc(N(C)C)cn6)CC5)nc(OC[C@@]56CCCN5C[C@H](F)C6)nc4c3F)c12 [Example 64, (4-(dimethylamino)-1H-pyrazol-1-yl)(1-(7-(8-ethyl-7-fluoro-3-hydroxynaphthalen-1-yl)-8-fluoro-2-(((2R,7aS)-2-fluorotetrahydro-1H-pyrrolizin-7a(5H)-yl)methoxy)pyrido[4,3-d]pyrimidin-4-yl)piperidin-4-yl)methanone]"
28 nM,14 nM,17 nM,266 nM,> 10000 nM,415 nM,"CCc1c(F)ccc2cc(O)cc(-c3ncc4c(N5CCCC(C(=O)n6ccc(C)n6)C5)nc(OC[C@@]56CCCN5C[C@H](F)C6)nc4c3F)c12 (stereo partly drawn) [Example 65, (1-(7-(8-ethyl-7-fluoro-3-hydroxynaphthalen-1-yl)-8-fluoro-2-(((2R,7aS)-2-fluorotetrahydro-1H-pyrrolizin-7a(5H)-yl)methoxy)pyrido[4,3-d]pyrimidin-4-yl)piperidin-3-yl)(3-methyl-1H-pyrazol-1-yl)methanone]"
